Common to all, as to type: cell-based
One assay concerns NCI-H358. Put plainly: Anti-proliferation assay (CellTiter-Glo 2.0), combination index, NCI-H358. Put shortly:
(§1)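 Cells were seeded at 500 cells/well in medium with 10% FBS and exposed to agents at 8 concentrations including 0 nM, for 3 days at 37° C under 5% CO2. Survival was read by CellTiter-Glo 2.0 luminescence, and combination index was determined at each combined concentration.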

For another assay, the system named is MKN45. The assay is described as follows: Anti-proliferation assay (CellTiter-Glo 2.0), combination index, MKN45. Put shortly: as §1
The subject of a further assay is MV-4-11. The assay is described as follows: Anti-proliferation assay (CellTiter-Glo 2.0), combination index, MV-4-11. Here is the method:
(§2) Cell lines were obtained from ATCC or Health Science Research Resources Bank.
(§3) 384 well culture plate (781086, Greiner Bio-One International) was used for cell survival rate measurement assay. Each cell lines were collected by ordinary method, then suspended in indicated medium containing 10% fetal bovine serum in table 3. The number of cells seeded per well was set to 500 cells/20 μL. After incubation at 37° C. for 24 hours under 5% CO2, Compound 1 and additional compound having an antitumor effect or a vehicle (DMSO) was added to each well by using D300e Digital Dispenser (Tecan). The concentration of Compound 1 was set to 10 concentrations. The concentration of each anti-cancer reagents set to 8 concentrations including 0 nM. After adding the medicine to the cells, the cells were further incubated at 37° C. for 3 days under 5% CO2. Cell survival rates were calculated by adding 20 μL of CellTiter-Glo(registered trademark) 2. 0 (Promega) solution to each well, incubating the cells at room temperature for 10 minutes, and then measuring the chemiluminescence intensity of each well using a plate reader (ARVO).
(§4) A combination index (CI) value at each combined concentration of the medicines was determined.

The next assay has as its system RMG-I. Put plainly: Anti-proliferation assay (CellTiter-Glo 2.0), combination index, RMG-I. Here is the method:
as §2, §3, §4

The subject of the next assay is NCI-H23. Put plainly: Anti-proliferation assay (CellTiter-Glo 2.0), combination index, NCI-H23. Here is the method:
as §2
Each cell lines were collected by ordinary method, then suspended in indicated medium containing 10% fetal bovine serum in table 3. The number of cells seeded per well was set to 500 cells/20 μL. […] The concentration of each anti-cancer reagents set to 8 concentrations including 0 nM. After adding the medicine to the cells, the cells were further incubated at 37° C. for 3 days under 5% CO2. Cell survival rates were calculated by adding 20 μL of CellTiter-Glo(registered trademark) 2. 0 (Promega) solution to each well, incubating the cells at room temperature for 10 minutes, and then measuring the chemiluminescence intensity of each well using a plate reader (ARVO).
as §4

For another assay, the system named is RT4. Put plainly: Anti-proliferation assay (CellTiter-Glo 2.0), combination index, RT4. Summed up:
as §1

The mark [1] stands for this setting: Compound 1 4.57 + combination drug 123 nmol/L (1:27).
Where [2] appears, read: Compound 1 13.7 + combination drug 370 nmol/L (1:27).
[3] abbreviates: Compound 1 41.2 + combination drug 1110 nmol/L (1:27).
Where [4] appears, read: Compound 1 370 + combination drug 10000 nmol/L (1:27).
[5] abbreviates: Compound 1 41.2 + combination drug 3330 nmol/L (1:81).
The mark [6] stands for this setting: Compound 1 123 + combination drug 10000 nmol/L (1:81).
Setting [7] is: Compound 1:combination drug molar ratio 1:81.
The mark [8] stands for this setting: Compound 1 13.7 + combination drug 41.2 nmol/L (1:3).
Setting [9] is: Compound 1 41.2 + combination drug 123 nmol/L (1:3).
Where [10] appears, read: Compound 1 123 + combination drug 370 nmol/L (1:3).
The mark [11] stands for this setting: Compound 1 370 + combination drug 1110 nmol/L (1:3).
The mark [12] stands for this setting: Compound 1 1110 + combination drug 3330 nmol/L (1:3).
[13] abbreviates: Compound 1:combination drug molar ratio 1:3.
The mark [14] stands for this setting: Compound 1 13.7 + combination drug 123 nmol/L (1:9).
[15] abbreviates: Compound 1 41.2 + combination drug 370 nmol/L (1:9).
Where [16] appears, read: Compound 1 123 + combination drug 1110 nmol/L (1:9).
Where [17] appears, read: Compound 1 3330 + combination drug 10000 nmol/L (1:3).
Setting [18] is: Compound 1 41.2 + combination drug 41.2 nmol/L (1:1).
Where [19] appears, read: Compound 1 123 + combination drug 123 nmol/L (1:1).
Setting [20] is: Compound 1 370 + combination drug 370 nmol/L (1:1).
Setting [21] is: Compound 1 1110 + combination drug 1110 nmol/L (1:1).
[22] abbreviates: Compound 1 3330 + combination drug 3330 nmol/L (1:1).
[23] abbreviates: Compound 1 123 + combination drug 333 nmol/L (1:2.7).
[24] abbreviates: Compound 1 370 + combination drug 1000 nmol/L (1:2.7).
Setting [25] is: Compound 1 4.57 + combination drug 1.37 nmol/L (1:0.3).
Where [26] appears, read: Compound 1 13.7 + combination drug 4.12 nmol/L (1:0.3).
Where [27] appears, read: Compound 1 41.2 + combination drug 12.3 nmol/L (1:0.3).
Where [28] appears, read: Compound 1 123 + combination drug 37.0 nmol/L (1:0.3).
The mark [29] stands for this setting: Compound 1 370 + combination drug 111 nmol/L (1:0.3).

`COC(=O)c1ccc2c(c1)NC(=O)/C2=C(\Nc1ccc(N(C)C(=O)CN2CCN(C)CC2)cc1)c1ccccc1` [Nintedanib]: the CI came to 0.837 in the assay with NCI-H358 (setting [1]); 0.576 in the assay on NCI-H358 (setting [2]); 0.580 in the assay with NCI-H358 (setting [3]); 0.858 with NCI-H358 (setting [4]); 0.925 with MKN45 (setting [5]); 0.418 with MKN45 (setting [6]). Moreover, the CI in the assay with MV-4-11 (setting [8]) was determined as 0.479; with MV-4-11 (setting [9]), 0.370; with MV-4-11 (setting [10]) it was 0.706; in the assay on MV-4-11 (setting [11]), 0.617; with MV-4-11 (setting [12]) it was 0.770; in the assay with RMG-I (setting [14]), 0.772. Also, the CI in the assay with RMG-I (setting [15]) was determined as 0.477; in the assay with RMG-I (setting [16]), 0.683. Besides, the Fa came out at 0.0649 with NCI-H358 (setting [1]); 0.1639 with NCI-H358 (setting [2]); 0.3485 in the assay with NCI-H358 (setting [3]); 0.9756 with NCI-H358 (setting [4]); 0.5044 in the assay with MKN45 (setting [5]); 0.8817 in the assay with MKN45 (setting [6]). Moreover, the Fa is listed as 0.7111 in the assay on MV-4-11 (setting [8]); 0.9278 in the assay on MV-4-11 (setting [9]); 0.9603 with MV-4-11 (setting [10]); 0.9933 with MV-4-11 (setting [11]); 0.9982 in the assay on MV-4-11 (setting [12]); 0.2678 with RMG-I (setting [14]). The values for the Fa with RMG-I (setting [15]) and in the assay with RMG-I (setting [16]) were 0.4576 and 0.6821, respectively. Further, the “Description (combinatory effect by CI)” value with NCI-H358 (Compound 1:combination drug molar ratio 1:27), in the assay on MKN45 (setting [7]), in the assay on MV-4-11 (setting [13]) and with RMG-I (Compound 1:combination drug molar ratio 1:9) was “Synergy (0.3-0.7)” each time.
`C[C@@H](Oc1cc(-c2cnn(C3CCNCC3)c2)cnc1N)c1c(Cl)ccc(F)c1Cl` [Crizotinib]: in the assay with NCI-H23 (setting [12]), the CI was determined as 0.939 and the Fa was 0.5445. Besides, in the assay on NCI-H23 (setting [17]), the CI came to 0.765 and the Fa stood at 0.8672.
Turning to `CN(C)C/C=C/C(=O)Nc1cc2c(Nc3ccc(F)c(Cl)c3)ncnc2cc1O[C@H]1CCOC1` [Afatinib], the CI with NCI-H358 (setting [18]) is reported as 0.143; with NCI-H358 (setting [19]), 0.264; in the assay with NCI-H358 (setting [20]) it was 0.426; with NCI-H358 (setting [21]) it was 0.686; in the assay with NCI-H358 (setting [22]), 0.526; with NCI-H23 (setting [10]), 0.776. Further, the CI in the assay with NCI-H23 (setting [11]) amounted to 0.397; with NCI-H23 (setting [12]), 0.400; in the assay on NCI-H23 (setting [17]), 0.471; with RT4 (setting [6]), 0.471. For the same molecule, the Fa was found to be 0.4605 with NCI-H358 (setting [18]); 0.5395 in the assay on NCI-H358 (setting [19]); 0.6382 in the assay with NCI-H358 (setting [20]); 0.7270 in the assay with NCI-H358 (setting [21]); 0.8696 in the assay with NCI-H358 (setting [22]); 0.1325 with NCI-H23 (setting [10]). For the same molecule, the Fa was found to be 0.3961 in the assay on NCI-H23 (setting [11]); 0.8058 in the assay on NCI-H23 (setting [12]); 0.9563 in the assay on NCI-H23 (setting [17]); 0.9986 in the assay on RT4 (setting [6]); 0.6791 in the assay on MV-4-11 (setting [2]); 0.9244 with MV-4-11 (setting [3]). The “Description (combinatory effect by CI)” value with NCI-H23 (setting [13]) and in the assay on RT4 (setting [7]) was “Synergy (0.3-0.7)” each time.
Consider `CCc1nc(C(N)=O)c(Nc2ccc(N3CCC(N4CCN(C)CC4)CC3)c(OC)c2)nc1NC1CCOCC1` [Gilteritinib], for which the CI is on record as 0.540 in the assay on NCI-H23 (setting [23]); 0.666 in the assay on NCI-H23 (setting [24]); 0.817 in the assay with MV-4-11 (setting [25]); 0.235 in the assay on MV-4-11 (setting [26]); 0.189 in the assay on MV-4-11 (setting [27]); 0.354 in the assay with MV-4-11 (setting [28]). In the assay with MV-4-11 (setting [29]), the CI was determined as 0.862. Moreover, the Fa was found to be 0.3005 in the assay on NCI-H23 (setting [23]); 0.6542 in the assay on NCI-H23 (setting [24]); 0.5753 in the assay with MV-4-11 (setting [25]); 0.8986 in the assay with MV-4-11 (setting [26]); 0.9647 in the assay with MV-4-11 (setting [27]); 0.9763 in the assay with MV-4-11 (setting [28]). For the same molecule, the Fa with MV-4-11 (setting [29]) turned out to be 0.9802. Also, the “Description (combinatory effect by CI)” value with NCI-H23 (Compound 1:combination drug molar ratio 1:2.7) was “Synergy (0.3-0.7)”.

These data come from US20230146795A1, “ENHANCEMENT OF ANTI-TUMOR ACTIVITY OF SHP2 INHIBITOR PYRIMIDINONE IN COMBINATION WITH NOVEL CANCER MEDICINES IN CANCERS” (TAIHO PHARMACEUTICAL CO., LTD., priority 2020, published 2023).
